# Tests used:
# [1] = biological target: T1, IRE1a (Homo sapiens, UniProt O75460); assay: IRE1a Endoribonuclease Nanoluciferase Assay (XBP1 luciferase reporter in 293T cells); format: cell-based; settings: 293T cells transfected with XBP1 luciferase reporter, ER stressors +/- inhibitors
# Procedure: Compounds disclosed herein were assessed for disruption of IRE1 signaling using a IRE1a Endoribonuclease Nanoluciferase Assay. Briefly, 2.5×10^6 293T cells were seeded in a 10 cm^2 tissue culture plate. About 24 hours later, the cells were transfected with Effectene. In a 15 mL Tube, the following was added: 2 ug XBP1 luciferase reporter plasmid (PGK-Luc2-P2A-XBP1u-Nanoluciferase-PEST); 300 ul EC buffer; and 16 ul Enhancer, followed by incubation at room temp for 5 minutes. Next, 60 ul Effectene (Qiagen 301427) was added, followed by incubation at room temperature for 10 minutes. 2.6 mL cDMEM media was added. Old media was aspirated from the cells, followed by addition of 7 mL fresh media. Full transfection mixture was added dropwise to cells. Cells were incubated for 6 hours, followed by trypsinization, centrifugation and resuspension in 11 mL media. 100 uL of cells were plated per a well in a 96 well plate. A day later, ER stressors of choice +/− inhibitors were added. To harvest, media was aspirated from cells completely, then 50 uL 1× passive lysis buffer (Promega: E1941) was added per well and put on shaker (300 rpm) for 30 minutes at room temperature. Cells were centrifuged, and 15 uL sample per well was added to a new, opaque white 384 well plate (Corning 3570). 15 uL OneGlo (nanoluciferase kit, Promega N1630) was added. Plates were spun down, placed on shaker (300 rpm) for 10 minutes. Plates were read on luminometer, 1000 ms integration time per well. 15 uL Stop and Glo (nanoluciferase kit) was added. Plates were spun down, placed on shaker (300 rpm) for 10 minutes. Plates were read on luminometer, 1000 ms second integration time per well. Recordings are provided below in Table 4.
# [2] = biological target: T1, IRE1a; assay: In vitro FRET assay (XBP1 RNA probe cleavage by IRE1a); format: biochemical; parameters: purchased SignalChem; settings: 2 nM IRE1a protein
# Procedure: In vitro FRET assay was performed to evaluate the ability of select compounds to inhibit IRE1, the results of which are summarized in Table 3. To perform the in vitro FRET assay, 1× complete assay buffer (CAB; […], 50 mM sodium citrate pH 7.15, ImM magnesium acetate, 0.02% tween 20) was used to dilute SignalChem IRE1a protein to a final concentration of 2 nM. Selected compounds were serially diluted with DMSO in a non-binding black 384-well plate for a total of 15 ul in each well. 2 ul of the serially diluted compound or DMSO control were then added to new wells containing 98 ul of 1×CAB, for a total volume of 100 ul, 10 ul of which were then transferred to wells of a new plate. 5 ul of the diluted IRE1a was then added to each well. 5 ul of a […] XBP1 RNA probe was then added to each well. Fluorescence was then read over 30 minutes in kinetic mode (485/515 nm).
# Two RNA probes were used, XBP1 wildtype (SEQ ID NO: 2) which is able to be spliced by active IRE1a or XBP1 mutant (SEQ ID NO: 3) which is unable to be spliced. Each probe contained a 5′ 6-FAM modification and a 3′ IOWA Black FQ modification. […]
# T1 sequence (O75460 19-977): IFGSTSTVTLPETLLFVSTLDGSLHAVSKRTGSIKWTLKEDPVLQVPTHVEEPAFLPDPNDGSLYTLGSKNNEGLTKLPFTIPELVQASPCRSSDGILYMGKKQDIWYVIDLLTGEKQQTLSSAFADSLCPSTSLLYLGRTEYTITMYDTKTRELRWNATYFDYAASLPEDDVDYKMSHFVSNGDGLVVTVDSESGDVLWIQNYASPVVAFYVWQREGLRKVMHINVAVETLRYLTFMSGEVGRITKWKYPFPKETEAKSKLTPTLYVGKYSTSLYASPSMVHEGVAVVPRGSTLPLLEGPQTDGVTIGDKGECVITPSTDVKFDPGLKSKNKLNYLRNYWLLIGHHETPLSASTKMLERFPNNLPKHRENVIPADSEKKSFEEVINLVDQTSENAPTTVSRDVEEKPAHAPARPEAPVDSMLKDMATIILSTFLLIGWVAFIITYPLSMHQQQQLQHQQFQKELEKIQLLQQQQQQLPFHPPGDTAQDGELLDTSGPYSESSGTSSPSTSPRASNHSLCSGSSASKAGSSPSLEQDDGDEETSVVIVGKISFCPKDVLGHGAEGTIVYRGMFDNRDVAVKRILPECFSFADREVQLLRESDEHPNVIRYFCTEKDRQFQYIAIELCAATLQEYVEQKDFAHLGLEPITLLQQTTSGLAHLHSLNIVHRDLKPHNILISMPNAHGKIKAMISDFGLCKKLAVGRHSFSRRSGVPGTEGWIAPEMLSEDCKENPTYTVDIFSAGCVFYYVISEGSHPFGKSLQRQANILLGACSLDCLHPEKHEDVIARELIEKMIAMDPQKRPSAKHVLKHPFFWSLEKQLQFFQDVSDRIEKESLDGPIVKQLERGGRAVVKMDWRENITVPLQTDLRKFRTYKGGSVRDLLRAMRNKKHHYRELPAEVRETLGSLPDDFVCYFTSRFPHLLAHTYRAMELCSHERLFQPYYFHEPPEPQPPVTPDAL
Structure (SMILES),EC50 [1] [nM],IC50 [2] [nM]
CCc1cc(-c2ccc(NS(=O)(=O)c3ccccc3Cl)nc2OC(F)(F)F)cc2cnc(N[C@H]3CC[C@H](N)CC3)nc12 [107; Formic Acid],≤ 5,≤ 5
COc1nc(NS(=O)(=O)c2ccccc2Cl)ccc1-c1cc2cnc(N[C@H]3CC[C@H](N)CC3)nc2cc1C [104; Formic Acid],50 to 100,≤ 5
CCc1cc(-c2ccc(NS(=O)(=O)c3ccccc3Cl)c(F)c2)cc2cnc(N[C@@H]3CC[C@@H](N)[C@H](C)C3)nc12 [74; Formic Acid],≤ 5,≤ 5
CCc1cc2nc(N[C@H]3CC[C@H](N)CC3)ncc2cc1-c1ccc(NS(=O)(=O)c2ccccc2Cl)nc1OC [110; Formic Acid],≤ 5,≤ 5
CCc1cc(-c2cc(OC)c(NS(=O)(=O)c3ccccc3Cl)nn2)cc2cnc(N[C@H]3CC[C@H](N)CC3)nc12 [66; Formic Acid],50 to 100,≤ 5
CCc1cc(-c2ncc(NS(=O)(=O)c3ccccc3Cl)cc2OC)cc2cnc(N[C@H]3CC[C@H](N)CC3)nc12 [93; Formic Acid],≤ 5,≤ 5
CCc1cc(-c2ccc(NS(=O)(=O)c3ccccc3Cl)c(F)c2)cc2cnc(N[C@@H]3CC[C@H](N)C3)nc12 [79; Formic Acid],5 to 50,≤ 5
N[C@H]1CC[C@H](Nc2ncc3cc(-c4ccc(NS(=O)(=O)c5ccccc5Cl)cc4F)ccc3n2)CC1 [48; Formic Acid],5 to 50,≤ 5
N[C@H]1CC[C@H](Nc2ncc3cc(-c4ccc(NS(=O)(=O)c5ccccc5Cl)c(F)c4)ccc3n2)CC1 [50; Formic Acid],,≤ 5
CCc1cc(-n2cc(NS(=O)(=O)c3ccccc3Cl)cn2)cc2cnc(N[C@H]3CC[C@H](N)CC3)nc12 [43; Formic Acid],,≤ 5
CCc1cc(-c2ccc(NS(=O)(=O)c3ccccc3Cl)nc2OC)cc2cnc(N[C@H]3CC[C@H](O)CC3)nc12 [101; Formic Acid],,5 to 50
CCc1cc(-c2ccc(NS(=O)(=O)c3ccccc3Cl)c(F)c2)cc2cnc(N[C@H]3CC4C[C@@H](N)CC4C3)nc12 (stereo partly shown) [84; Formic Acid],5 to 50,≤ 5
CCc1cc(-c2cnc(NS(=O)(=O)c3ccccc3Cl)nc2)cc2cnc(N[C@H]3CC[C@H](N)CC3)nc12 [39; Formic Acid],,≤ 5
CCc1cc(-c2ccc(NS(=O)(=O)c3ccccc3)cc2C)cc2cnc(N[C@H]3CC[C@H](N)CC3)nc12 [15; Formic Acid],,> 100
CCc1cc(-c2cc(F)c(NS(=O)(=O)c3ccccc3Cl)cc2OC)cc2cnc(N[C@H]3CC[C@H](N)CC3)nc12 [42; Formic Acid],,≤ 5
CCc1cc(-c2cnc(NS(=O)(=O)c3ccccc3Cl)s2)cc2cnc(N[C@H]3CC[C@H](N)CC3)nc12 [41; Formic Acid],,≤ 5
COc1nc(NS(=O)(=O)c2ccccc2Cl)ccc1-c1ccc2nc(N[C@H]3CC[C@H](N)CC3)ncc2c1C [114; Formic Acid],,5 to 50
CCc1cc(-c2ccc(NS(=O)(=O)c3ccccc3Cl)nc2OC)cc2cnc(N[C@H]3CC[C@@H](N)CC3)nc12 [140; Formic Acid],,≤ 5
CCc1cc(-c2ccc(NS(=O)(=O)c3ccc(Cl)cc3)cc2C)cc2cnc(N[C@H]3CC[C@H](N)CC3)nc12 [Compound 12],,> 100
"CCc1cc(-c2ccc(NS(=O)(=O)c3ccccc3F)cc2C)cc2cnc(N[C@H]3CC[C@H](N)CC3)nc12 [Compound 10, N-(4-(2-(((1r,4r)-4-aminocyclohexyl)amino)-8-ethylquinazolin-6-yl)-3-methylphenyl)-2-fluorobenzenesulfonamide]",,≤ 5

Structure (SMILES),EC50 [1] [nM],IC50 [2] [nM]
CCc1cc(-c2cc(F)c(NS(=O)(=O)c3ccccc3Cl)c(F)c2)cc2cnc(N[C@H]3CC[C@H](N)CC3)nc12 [63; Formic Acid],,≤ 5
CCc1cc(-c2ccc(NS(=O)(=O)c3ccccc3Cl)cc2Cl)cc2cnc(N[C@H]3CC[C@H](N)CC3)nc12 [17; Formic Acid],,> 100
COc1cc(-c2ccc(NS(=O)(=O)c3ccccc3Cl)cc2C)cc2cnc(N[C@H]3CC[C@H](N)CC3)nc12 [36; Formic Acid],,≤ 5
CCc1nc(NS(=O)(=O)c2ccccc2Cl)ccc1-c1cc2cnc(N[C@H]3CC[C@H](N)CC3)nc2cc1C [105; Formic Acid],,≤ 5
Cc1cc(N(C)S(=O)(=O)c2ccccc2Cl)ccc1-c1cc(O)c2nc(N[C@H]3CC[C@H](N)CC3)ncc2c1 [30; Formic Acid],,50 to 100
CCc1cc(-c2ccc(N(C)S(=O)(=O)c3ccccc3Cl)cc2C)cc2cnc(N[C@H]3CC[C@H](N)CC3)nc12 [31; Formic Acid],,> 100
CC(C)c1cc(-c2cc(NS(=O)(=O)c3ccccc3Cl)nn2C)cc2cnc(N[C@H]3CC[C@H](N)CC3)nc12 [40; Formic Acid],,≤ 5
CCc1cc(-c2sc(NS(=O)(=O)c3ccccc3Cl)nc2C)cc2cnc(N[C@H]3CC[C@H](N)CC3)nc12 [38; Formic Acid],,≤ 5
COc1nc(NS(=O)(=O)c2ccccc2Cl)c(F)cc1-c1cc(C)c2nc(N[C@H]3CC[C@@H](N)CC3)ncc2c1 [146; Formic Acid],,≤ 5
"CCc1cc(-c2ccc(NS(=O)(=O)c3cc(Cl)ccc3Cl)cc2C)cc2cnc(N[C@H]3CC[C@H](N)CC3)nc12 [Compound 9, N-(4-(2-(((1r,4r)-4-aminocyclohexyl)amino)-8-ethylquinazolin-6-yl)-3-methylphenyl)-2,5-dichlorobenzenesulfonamide]",,≤ 5
CCc1cc(-c2ccc(NS(=O)(=O)c3ccccc3Cl)cc2C(F)(F)F)cc2cnc(N[C@H]3CC[C@H](N)CC3)nc12 [14; Formic Acid],,> 100
COc1cc(-c2cc(NS(=O)(=O)c3ccccc3Cl)nn2C)cc2cnc(N[C@H]3CC[C@H](N)CC3)nc12 [45; Formic Acid],,50 to 100
N[C@H]1CC[C@H](Nc2ncc3cc(-c4ccc(NS(=O)(=O)c5ccccc5Cl)nn4)ccc3n2)CC1 [49; Formic Acid],,≤ 5
Cc1cc2nc(N[C@H]3CC[C@H](N)CC3)ncc2cc1-c1ccc(NS(=O)(=O)c2ccccc2Cl)nc1C [106; Formic Acid],,≤ 5
CCc1cc(-c2ccc(NS(=O)(=O)c3ccccc3Cl)nc2OC)cc2cnc(NC3CCC(C)(N(C)C)CC3)nc12 (stereo not shown) [143; Formic Acid],,5 to 50
CCc1cc(-c2ccc(NS(=O)(=O)c3ccccc3OC)cc2C)cc2cnc(N[C@H]3CC[C@H](N)CC3)nc12 [Compound 13],,> 100
CCc1cc(NS(=O)(=O)c2ccccc2Cl)nnc1-c1cc(CC)c2nc(N[C@H]3CC[C@H](N)CC3)ncc2c1 [96; Formic Acid],,≤ 5
"CCc1cc(-c2ccc(NS(=O)(=O)c3ccccc3C(F)(F)F)cc2C)cc2cnc(N[C@H]3CC[C@H](N)CC3)nc12 [Compound 7, N-(4-(2-(((1r,4r)-4-aminocyclohexyl)amino)-8-ethylquinazolin-6-yl)-3-methylphenyl)-2-(trifluoromethyl)benzenesulfonamide]",,5 to 50
CCc1cc(-c2cc(F)c(NS(=O)(=O)c3ccccc3Cl)nc2OC)cc2cnc(N[C@H]3CC[C@@](C)(N(C)C)CC3)nc12 [144; Formic Acid],,50 to 100
"CCc1cc(-c2ccc(NS(=O)(=O)c3ccccc3OC(F)(F)F)cc2C)cc2cnc(N[C@H]3CC[C@H](N)CC3)nc12 [Compound 8, N-(4-(2-(((1r,4r)-4-aminocyclohexyl)amino)-8-ethylquinazolin-6-yl)-3-methylphenyl)-2-(trifluoromethoxy)benzenesulfonamide]",,5 to 50

# From US20180346446A1, “IRE1 SMALL MOLECULE INHIBITORS” (QUENTIS THERAPEUTICS, INC., priority 2017, published 2018)
